In ChEMBL document CHEMBL1148653, “Synthesis, structural reassignment, and biological activity of type B MAO inhibitors based on the 5H-indeno[1,2-c]pyridazin-5-one core” (J Med Chem, 2006):

How the values were obtained:
[1] = biological target: T1, Amine oxidase [flavin-containing] A (Homo sapiens, UniProt P21397); test: Inhibition of MAO-A in human placental mitochondria at 5 uM; parameters: species or system Placenta
T1 sequence (P21397 whole entry): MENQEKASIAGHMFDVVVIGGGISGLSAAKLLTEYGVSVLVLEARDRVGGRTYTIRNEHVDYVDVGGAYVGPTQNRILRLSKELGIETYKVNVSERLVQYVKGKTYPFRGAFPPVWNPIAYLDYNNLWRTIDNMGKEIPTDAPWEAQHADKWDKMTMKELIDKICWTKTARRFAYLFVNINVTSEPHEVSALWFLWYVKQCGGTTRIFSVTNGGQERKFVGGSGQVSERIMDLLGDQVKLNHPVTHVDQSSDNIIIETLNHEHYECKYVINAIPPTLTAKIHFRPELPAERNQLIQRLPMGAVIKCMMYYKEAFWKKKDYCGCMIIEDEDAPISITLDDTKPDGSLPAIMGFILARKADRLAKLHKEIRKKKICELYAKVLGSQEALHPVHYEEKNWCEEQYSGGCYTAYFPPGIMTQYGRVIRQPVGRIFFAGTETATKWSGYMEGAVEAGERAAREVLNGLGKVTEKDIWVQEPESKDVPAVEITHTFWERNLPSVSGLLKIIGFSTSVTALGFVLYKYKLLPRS

[2] = biological target: T2, Amine oxidase [flavin-containing] A (Rattus norvegicus, UniProt P21396); test: Inhibition of MAO-A in rat brain mitochondria
T2 sequence (P21396 whole entry): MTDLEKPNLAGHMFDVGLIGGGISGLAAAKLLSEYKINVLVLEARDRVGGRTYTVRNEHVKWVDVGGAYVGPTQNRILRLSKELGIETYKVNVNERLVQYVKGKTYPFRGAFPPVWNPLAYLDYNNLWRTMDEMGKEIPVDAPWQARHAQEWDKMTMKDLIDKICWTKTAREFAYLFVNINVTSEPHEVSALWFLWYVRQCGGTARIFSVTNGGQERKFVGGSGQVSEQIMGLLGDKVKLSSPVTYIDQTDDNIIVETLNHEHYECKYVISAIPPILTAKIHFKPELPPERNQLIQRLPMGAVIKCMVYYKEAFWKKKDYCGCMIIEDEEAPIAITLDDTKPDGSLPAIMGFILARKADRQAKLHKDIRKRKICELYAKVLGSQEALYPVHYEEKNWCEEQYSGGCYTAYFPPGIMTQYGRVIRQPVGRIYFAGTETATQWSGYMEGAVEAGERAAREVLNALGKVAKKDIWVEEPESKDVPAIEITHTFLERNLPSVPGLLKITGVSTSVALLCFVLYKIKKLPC

[3] = biological target: T3, Amine oxidase [flavin-containing] B (Rattus norvegicus, UniProt P19643); test: Inhibition of MAO-B in rat brain mitochondria
T3 sequence (P19643 whole entry): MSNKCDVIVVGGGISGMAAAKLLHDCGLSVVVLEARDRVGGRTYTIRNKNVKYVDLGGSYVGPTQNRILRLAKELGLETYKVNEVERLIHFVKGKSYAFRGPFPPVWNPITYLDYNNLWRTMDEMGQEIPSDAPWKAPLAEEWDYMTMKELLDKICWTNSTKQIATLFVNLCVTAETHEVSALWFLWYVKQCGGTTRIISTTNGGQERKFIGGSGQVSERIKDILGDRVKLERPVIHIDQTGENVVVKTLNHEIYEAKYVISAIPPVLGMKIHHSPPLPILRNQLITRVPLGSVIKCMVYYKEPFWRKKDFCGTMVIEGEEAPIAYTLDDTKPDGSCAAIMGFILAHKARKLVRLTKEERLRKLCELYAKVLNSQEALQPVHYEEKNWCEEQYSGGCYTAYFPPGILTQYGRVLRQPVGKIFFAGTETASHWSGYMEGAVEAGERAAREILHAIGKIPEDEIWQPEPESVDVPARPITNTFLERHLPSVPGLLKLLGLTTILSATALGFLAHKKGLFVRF

**Q.** `COc1ccc2c(c1)C(=O)c1cc(-c3cccc(C(F)(F)F)c3)nnc1-2` was tested. Which Inhibition [1] did it give?
**A.** Not Active

**Q.** For `Cc1cc2c(nn1)-c1cc(OCc3ccccc3)ccc1C2=O`, which IC50 [2] is on record?
**A.** > 1000 nM

**Q.** What about the IC50 [3] of the same molecule?
**A.** 170 nM

**Q.** `COc1ccc2c(c1)-c1nnc(-c3cccc(C(F)(F)F)c3)cc1C2=O` was tested. Which Inhibition [1] did it give?
**A.** Not Active

**Q.** With `COc1ccc2c(c1)-c1nnc(C)cc1C2=O` as the molecule, how does the IC50 [2] read?
**A.** > 1000 nM

**Q.** What about the IC50 [3] of the same molecule?
**A.** > 1000 nM
